Laboratory results reported in US20240101570A1 (AMGEN INC., priority 2020, published 2024).
pIC50: −log10 of the molar value.

Assays:
HCT116 MTAP null cells = assay: HCT116 MTAP null cell proliferation / viability (CellTiter-Glo, 6 days); format: cell-based; conditions: HCT116-MTAP null, 144 h, HCT116 MTAP null cells, 6 days, CellTiter-Glo; read-out: HCT-116 MTAP null IC50
How it was run: (§1)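 Viability read by CellTiter-Glo after 6-day compound exposure of MTAP-null and wild-type HCT116 cells grown in RPMI 1640 with 10% FBS. Dosing used 1:3 steps from 1 or 10 μM (8-9 points) or 1:2 steps from 10 or 50 μM (22 points); IC50 taken where fitted curve crosses 50% of control.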

HCT116 WT cells = assay: HCT116 WT cell proliferation / viability (CellTiter-Glo, 6 days); format: cell-based; conditions: Homo sapiens, HCT-116, 144 h, HCT116 WT cells, 6 days, CellTiter-Glo; read-out: HCT-116 WT IC50
How it was run: as §1

Row | Structure (SMILES) | pIC50 (HCT116 MTAP null cells) | pIC50 (HCT116 WT cells)
1 | Nc1nc2ccc(C(=O)N(Cc3ccc(OC(F)(F)F)cn3)CC3CC3)cc2c2c1COC2 [Example 663, 4-amino-N-(cyclopropylmethyl)-N-((5-(trifluoromethoxy)-2-pyridinyl)methyl)-1,3-dihydrofuro[3,4-c]quinoline-8-carboxamide] | 7.46 | 5.99
2 | C[C@@H](c1ncccn1)N(Cc1ccc(C#N)cn1)C(=O)c1ccc2nc(N)c3c(c2c1)COC3 [Example 666, 4-amino-N-((5-cyano-2-pyridinyl)methyl)-N-((1S)-1-(2-pyrimidinyl)ethyl)-1,3-dihydrofuro[3,4-c]quinoline-8-carboxamide] | 6.16 | < 5.00
3 | C[C@H](c1ncn(C)n1)N(Cc1ccc(C(F)F)cn1)C(=O)c1cc2c3c(c(N)nc2cn1)COC3 [Example 667, 4-amino-N-((5-(difluoromethyl)-2-pyridinyl)methyl)-N-((1R)-1-(1-methyl-1H-1,2,4-triazol-3-yl)ethyl)-1,3-dihydrofuro[3,4-c][1,7]naphthyridine-8-carboxamide] | 6.03 | 5.15
4 | Nc1nc2ccc(C(=O)N(Cc3ccc(C(F)(F)F)nn3)C3CCC3)cc2c2c1COC2 [Example 669, 4-amino-N-cyclobutyl-N-((6-(trifluoromethyl)-3-pyridazinyl)methyl)-1,3-dihydrofuro[3,4-c]quinoline-8-carboxamide] | 7.14 | 5.51
5 | Nc1nc2cnc(C(=O)N(Cc3ccc(Br)nn3)CC3CC3)cc2c2c1COC2 [Example 671, 4-amino-N-((6-bromo-3-pyridazinyl)methyl)-N-(cyclopropylmethyl)-1,3-dihydrofuro[3,4-c][1,7]naphthyridine-8-carboxamide] | 7.10 | 5.40
6 | C[C@H](c1ncccn1)N(Cc1ccc(Br)nn1)C(=O)c1cc2c3c(c(N)nc2cn1)COC3 [Example 673, 4-amino-N-((6-bromo-3-pyridazinyl)methyl)-N-((1R)-1-(2-pyrimidinyl)ethyl)-1,3-dihydrofuro[3,4-c][1,7]naphthyridine-8-carboxamide] | 6.96 | 5.49
7 | Nc1nc2ccc(C(=O)N(Cc3ccc(Br)nn3)CC3CC3)cc2c2c1COC2 [Example 674, 4-amino-N-((6-bromo-3-pyridazinyl)methyl)-N-(cyclopropylmethyl)-1,3-dihydrofuro[3,4-c]quinoline-8-carboxamide] | 7.14 | 5.59

Results, then the compound that gave them:

Row | pIC50 (HCT116 MTAP null cells) | pIC50 (HCT116 WT cells) | Structure (SMILES)
8 | 7.42 | 5.86 | CC(C)CN(Cc1ccc(C(F)(F)F)nn1)C(=O)c1ccc2nc(N)c3c(c2c1)COC3 [Example 664, 4-amino-N-(2-methylpropyl)-N-((6-(trifluoromethyl)-3-pyridazinyl)methyl)-1,3-dihydrofuro[3,4-c]quinoline-8-carboxamide]
9 | 7.43 | 5.90 | CC(C)CN(Cc1ccc(Br)nn1)C(=O)c1ccc2nc(N)c3c(c2c1)COC3 [Example 665, 4-amino-N-((6-bromo-3-pyridazinyl)methyl)-N-(2-methylpropyl)-1,3-dihydrofuro[3,4-c]quinoline-8-carboxamide]
10 | 6.52 | < 5.00 | Nc1nc2cnc(C(=O)N(Cc3ccc(C(F)(F)F)nn3)C3CC(F)(F)C3)cc2c2c1COC2 [Example 668, 4-amino-N-(3,3-difluorocyclobutyl)-N-((6-(trifluoromethyl)-3-pyridazinyl)methyl)-1,3-dihydrofuro[3,4-c][1,7]naphthyridine-8-carboxamide]
11 | 6.77 | 5.10 | CC(C)CN(Cc1ccc(C(F)(F)F)nn1)C(=O)c1cc2c3c(c(N)nc2cn1)COC3 [Example 670, 4-amino-N-(2-methylpropyl)-N-((6-(trifluoromethyl)-3-pyridazinyl)methyl)-1,3-dihydrofuro[3,4-c][1,7]naphthyridine-8-carboxamide]
12 | 6.84 | 5.13 | CCOc1ccc(CN(CC(C)C)C(=O)c2cc3c4c(c(N)nc3cn2)COC4)nn1 [Example 672, 4-amino-N-((6-ethoxy-3-pyridazinyl)methyl)-N-(2-methylpropyl)-1,3-dihydrofuro[3,4-c][1,7]naphthyridine-8-carboxamide]
